Results reported in patent US10028961B2, “Therapeutically active compounds and their methods of use” (AGIOS PHARMACEUTICALS, INC., priority 2013, dated 2018).
Read-outs that look alike come from different tables or passages of the source.

What was measured:
[1] = test system: Neurosphere cells (TS603); assay: Cellular assay for IDH1m R132H inhibitors, 2-HG by LC-MS in neurosphere cells (TS603); assay type: cell-based; conditions: 2-HG in media at 48 hours
How it was run: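 TS603 neurosphere cells in NeuroCult medium were dosed with compound (0.25% DMSO final) at 37 C, 5% CO2. After 48 hours, medium 2-HG was measured by LC-MS. At 72 hours, viability was read by CellTiter-Glo luminescence.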

[2] = test system: U87MG pLVX-IDH2 R140Q-neo cells; assay: U87MG pLVX-IDH2 R140Q-neo cell based assay, 2-HG by LC-MS; conditions: Homo sapiens, U-87 MG
HT1080 cells = assay: Cellular assay for IDH1m R132C inhibitors, 2-HG by LC-MS in HT1080 cells; assay type: cell-based; conditions: Homo sapiens, HT-1080
Protocol: The following describes the experimental procedures that can be used to obtain data on column 5 of Table 4.
Cells (HT1080 or U87MG) are grown in T125 flasks in DMEM containing 10% FBS, 1× penicillin/streptomycin and 500 ug/mL G418 (present in U87MG cells only). They are harvested by trypsin and seeded into 96 well white bottom plates at a density of 5000 cell/well in 100 ul/well in DMEM with 10% FBS. No cells are placed in columns 1 and 12. Cells are incubated overnight at 37° C. in 5% CO2. The next day test compounds are made up at 2× the final concentration and 100 ul are added to each cell well. The final concentration of DMSO is 0.2% and the DMSO control wells are plated in row G. The plates are then placed in the incubator for 48 hours. At 48 hours, 100 ul of media is removed from each well and analyzed by LC-MS for 2-HG concentrations. The cell plate is placed back in the incubator for another 24 hours. At 72 hours post compound addition, 10 mL/plate of Promega Cell Titer Glo reagent is thawed and mixed. The cell plate is removed from the incubator and allowed to equilibrate to room temperature. Then 100 ul of Promega Cell Titer Glo reagent is added to each well of media. The cell plate is then placed on an orbital shaker for 10 minutes and then allowed to sit at room temperature for 20 minutes. The plate is then read for luminescence with an integration time of 500 ms.
HT1080 cells are maintained in RPMI containing 10% FBS, 1× penicillin/streptomycin. […] The next day compounds are prepared in 100% DMSO and then diluted in media for a final concentration of 0.2% DMSO. Media is removed from the cell plates and 200 μL of the compound dilutions are added to each well. […] The cell plates are then allowed to incubate another 24 hours.

[3] = molecular target: IDH1 wt/IDH1 R132H heterodimer (Homo sapiens (Human), UniProt O75874, R132H); assay: In vitro assay for IDH1m R132H inhibitors, IDH1 wt/IDH1 R132H heterodimer, NADPH depletion (diaphorase/resazurin); assay type: biochemical
How it was run: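 Purified IDH1wt-his/IDH1R132H-flag heterodimer (sf9 co-expression) pre-incubated 1 hr at room temperature with compound and NADPH before α-KG addition. Remaining NADPH read by diaphorase/resazurin conversion to fluorescent resorufin, 5 min at 25° C. Compounds diluted 1:50 from DMSO; IC50 determined.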

IDH2 R140Q = IDH2 R140Q (Homo sapiens (Human), UniProt P48735, R140Q); assay: In vitro assay for IDH2m R140Q inhibitors, cofactor depletion assay; assay type: biochemical; conditions: IDH2 R140Q enzyme
How it was run: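 Remaining cofactor measured fluorimetrically: diaphorase/resazurin Stop Mix […], halting the reaction. Before that, mutant enzyme and compound sat 1 h at RT, then substrate mix (4 μM NADPH, 1.6 mM α-KG) was added for 16 h at RT.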

[4] = molecular target: IDH1-R132H homodimer enzyme (Homo sapiens (Human), UniProt O75874, R132H); assay: In vitro assay IDH1-R132H homodimer, NADPH depletion assay with NADPH/NADP preincubation; assay type: biochemical; conditions: 5 μM NADPH and 37.5 μM NADP
Protocol: The following describes the experimental procedures that can be used to obtain data on columns 3 and 5 of Table 5.
A test compound is prepared as 10 mM stock in DMSO and diluted to 50× final concentration in DMSO, for a 50 μl reaction mixture. IDH enzyme activity converting alpha-ketoglutarate to 2-hydroxyglutaric acid is measured using a NADPH depletion assay. In the assay the remaining cofactor is measured at the end of the reaction with the addition of a catalytic excess of diaphorase and resazurin, to generate a fluorescent signal in proportion to the amount of NADPH remaining. […] The reaction is started with the addition of 10 μl of Substrate Mix ([…], 5 mM alpha-ketoglutarate, in Assay Buffer) and the mixture is incubated for 60 minutes at room temperature.

[5] = IDH1 wt/R132H heterodimer, NADPH/NADP, not saturated, read-out: IDH1 wt/R132H NADPH/NADP IC50 not saturated
[6] = IDH1 wt/IDH1 R132H heterodimer, 300 μM NADP (saturated), read-out: IDH1 wt/R132H NADPH/NADP IC50 saturated

Sequence of IDH1-R132H homodimer enzyme (O75874 whole entry R132H): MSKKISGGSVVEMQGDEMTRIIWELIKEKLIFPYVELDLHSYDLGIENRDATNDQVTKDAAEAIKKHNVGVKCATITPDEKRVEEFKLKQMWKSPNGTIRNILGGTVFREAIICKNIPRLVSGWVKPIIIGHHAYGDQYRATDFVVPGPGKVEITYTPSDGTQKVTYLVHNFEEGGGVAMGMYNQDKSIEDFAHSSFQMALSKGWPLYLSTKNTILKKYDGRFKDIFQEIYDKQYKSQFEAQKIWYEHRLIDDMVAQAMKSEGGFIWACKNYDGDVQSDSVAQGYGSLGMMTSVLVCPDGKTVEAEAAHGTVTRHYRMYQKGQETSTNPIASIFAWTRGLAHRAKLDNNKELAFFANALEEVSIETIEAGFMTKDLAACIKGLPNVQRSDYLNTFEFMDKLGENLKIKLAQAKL
Sequence of IDH1 wt/IDH1 R132H heterodimer (O75874 whole entry R132H): as above
Sequence of IDH1 wt/IDH1 R132H heterodimer (O75874 whole entry, stated change not applied): as the sequence (O75874 whole entry R132H) above, with H132R counted along it
Sequence of IDH2 R140Q (P48735 40-452 R140Q): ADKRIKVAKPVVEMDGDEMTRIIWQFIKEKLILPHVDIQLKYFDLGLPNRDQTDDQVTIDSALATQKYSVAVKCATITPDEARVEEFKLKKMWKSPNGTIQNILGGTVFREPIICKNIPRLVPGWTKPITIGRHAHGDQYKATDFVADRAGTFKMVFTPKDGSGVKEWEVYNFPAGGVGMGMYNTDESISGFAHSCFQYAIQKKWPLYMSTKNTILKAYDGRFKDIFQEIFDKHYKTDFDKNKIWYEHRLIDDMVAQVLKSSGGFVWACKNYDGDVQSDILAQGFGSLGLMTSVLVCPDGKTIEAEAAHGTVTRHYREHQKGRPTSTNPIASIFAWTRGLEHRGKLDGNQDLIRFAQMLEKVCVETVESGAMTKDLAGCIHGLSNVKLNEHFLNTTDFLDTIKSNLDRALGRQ

IC50 [1] | IC50 [2] | IC50 (HT1080 cells) | IC50 [3, 5] | IC50 (IDH2 R140Q) | IC50 [4] | IC50 [3, 6] | SMILES
< 50 nM |  | 100 to 1000 nM | < 50 nM |  |  |  | COc1ccc2c(c1)CC(Nc1nc(NC3CCC(F)(F)C3)nc(-c3cccc(C(F)(F)F)n3)n1)C2 (centres unmarked) [Compound 166]
< 50 nM |  | < 50 nM | < 50 nM |  |  |  | FC1(F)CCC(Nc2nc(NC3Cc4cccnc4C3)nc(-c3cccc(C(F)(F)F)n3)n2)C1 (centres unmarked) [Compound 188]
< 50 nM | < 50 nM | 100 to 1000 nM | < 50 nM | < 50 nM |  |  | CC(F)(F)c1cccc(-c2nc(NC3CCC(F)(F)CC3)nc(NC3CCC(F)(F)CC3)n2)n1 [Compound 218]
 | < 50 nM | > 1000 nM | 100 to 1000 nM |  |  |  | FC1(F)CCC(Nc2nc(NC3CCC(F)(F)C3)nc(-c3cccc(C4CC4)n3)n2)C1 (centres unmarked) [Compound 258]
100 to 1000 nM | 100 to 1000 nM |  | > 1000 nM | 100 to 1000 nM | > 1000 nM |  | FC(F)c1ccnc(-c2nc(NC3CCC(F)(F)CC3)nc(NC3CCC(F)(F)CC3)n2)n1 [Compound 308]
< 50 nM | < 50 nM |  |  | < 50 nM | < 50 nM | < 50 nM | Fc1cc(F)cc(Nc2nc(N[C@H]3CCC(F)(F)C3)nc(-c3cncc(C(F)(F)F)n3)n2)c1 [Compound 368]
< 50 nM | < 50 nM | 100 to 1000 nM |  | < 50 nM |  | < 50 nM | C[C@@H](Nc1nc(Nc2ccnc(C3(C#N)CC3)c2)nc(-c2cncc(C(F)(F)F)n2)n1)C(F)(F)F [Compound 377]
< 50 nM | < 50 nM | 50 to 100 nM |  | < 50 nM |  | < 50 nM | N#CC1(c2cc(Nc3nc(N[C@@H]4CCC(F)(F)C4)nc(-c4cncc(C(F)(F)F)n4)n3)ccn2)CC1 [Compound 378]
< 50 nM | < 50 nM | 100 to 1000 nM |  | < 50 nM |  | < 50 nM | N#Cc1cc(Nc2nc(N[C@H]3CCC(F)(F)C3)nc(-n3ccc(C(F)(F)F)n3)n2)ccn1 [Compound 381]
< 50 nM | < 50 nM | 100 to 1000 nM |  | < 50 nM |  | < 50 nM | CC(F)(F)c1cccc(-c2nc(Nc3ccnc(C4(C#N)CC4)c3)nc(NC3CCC(F)(F)C3)n2)n1 (centres unmarked) [Compound 384]
< 50 nM | < 50 nM | 100 to 1000 nM |  | < 50 nM |  | 50 to 100 nM | N#CC1(c2cc(Nc3nc(NC4CC5(C4)CC(F)(F)C5)nc(-c4cncc(C(F)(F)F)n4)n3)ccn2)CC1 [Compound 385]
< 50 nM | < 50 nM | 50 to 100 nM |  | < 50 nM |  | < 50 nM | FC1(F)CC(Nc2nc(Nc3ccnc(C(F)(F)F)c3)nc(-c3nc(C(F)(F)F)cs3)n2)C1 [Compound 388]
< 50 nM | < 50 nM | 100 to 1000 nM |  | < 50 nM |  | 50 to 100 nM | FC1(F)CC(Nc2nc(Nc3ccnc(C(F)(F)F)c3)nc(-c3cncc(C(F)(F)F)n3)n2)C1 [Compound 390]
< 50 nM | < 50 nM | 100 to 1000 nM |  | < 50 nM |  | < 50 nM | N#CC1(c2cc(Nc3nc(NC4CCC(F)(F)CC4)nc(-c4cncc(C(F)(F)F)n4)n3)ccn2)CC1 [Compound 394]
< 50 nM | < 50 nM | 50 to 100 nM |  | < 50 nM |  | 50 to 100 nM | FC1(F)CCC(Nc2nc(Nc3cncc(C(F)(F)F)c3)nc(-c3cccc(C(F)(F)F)n3)n2)C1 (centres unmarked) [Compound 405]
< 50 nM | < 50 nM | < 50 nM |  | < 50 nM |  | < 50 nM | FC(F)c1cncc(-c2nc(NC3CCC(F)(F)C3)nc(NC3CCC(F)(F)C3)n2)n1 (centres unmarked) [Compound 408]
< 50 nM | < 50 nM | < 50 nM |  | < 50 nM |  | < 50 nM | FC(F)c1cncc(-c2nc(NC3CC(F)(F)C3)nc(NC3CC(F)(F)C3)n2)n1 [Compound 409]
< 50 nM | 50 to 100 nM | 100 to 1000 nM |  |  |  | 100 to 1000 nM | FC(F)c1ccnc(-c2nc(NC3CCC(F)(F)C3)nc(NC3CCC(F)(F)C3)n2)n1 (centres unmarked) [Compound 412]
 | < 50 nM | 100 to 1000 nM |  |  | < 50 nM | < 50 nM | Fc1cc(F)cc(Nc2nc(NC3CC(F)(F)C3)nc(-c3nc(C(F)(F)F)cs3)n2)c1 [Compound 413]

More lines, now with the values behind:

SMILES | IC50 [1] | IC50 [2] | IC50 (HT1080 cells) | IC50 [3, 5] | IC50 (IDH2 R140Q) | IC50 [4] | IC50 [3, 6]
C[C@@H](Nc1nc(N[C@H](C)C(F)(F)F)nc(-c2cccc(Cl)n2)n1)C(F)(F)F [Compound 101] | < 50 nM | < 50 nM | < 50 nM |  |  |  | 
C[C@@H](Nc1nc(N[C@H](C)C(F)(F)F)nc(-c2csc(C(F)(F)F)n2)n1)C(F)(F)F [Compound 114] | < 50 nM | < 50 nM | < 50 nM | < 50 nM | < 50 nM |  | 
CC(Nc1nc(NC(C)C(F)(F)F)nc(-c2cccc(Cl)n2)n1)C(F)(F)F (centres unmarked) [Compound 130] |  | < 50 nM | < 50 nM |  |  |  | 
C[C@H](Nc1nc(N[C@H](C)C(F)(F)F)nc(-c2cccc(Cl)n2)n1)C(F)(F)F [Compound 136] | < 50 nM | < 50 nM | < 50 nM |  |  |  | 
C[C@H](Nc1nc(N[C@@H](C)C(F)(F)F)nc(-c2cccc(Cl)n2)n1)C(F)(F)F [Compound 142] | < 50 nM | < 50 nM | < 50 nM |  |  |  | 
CC(C)(O)CNc1nc(Nc2cc(F)cc(F)c2)nc(-n2ccc(C(F)(F)F)n2)n1 [Compound 235] | < 50 nM | < 50 nM | 100 to 1000 nM | < 50 nM | < 50 nM |  | 
C[C@@H](Nc1nc(N[C@H](C)C2CC2)nc(-c2cc(F)ccc2F)n1)C1CC1 [Compound 292] |  |  | > 1000 nM | 100 to 1000 nM |  |  | 
C[C@@H](Nc1nc(N[C@H](C)C(F)(F)F)nc(-c2cncc(C(F)(F)F)n2)n1)C(F)(F)F [Compound 386] | < 50 nM | < 50 nM | < 50 nM |  | < 50 nM |  | < 50 nM
FC(F)c1csc(-c2nc(NC3CCC(F)(F)C3)nc(NC3CCC(F)(F)C3)n2)n1 (centres unmarked) [Compound 402] | < 50 nM | < 50 nM | < 50 nM |  | < 50 nM |  | 50 to 100 nM
FC(F)c1csc(-c2nc(NC3CC(F)(F)C3)nc(NC3CC(F)(F)C3)n2)n1 [Compound 403] | < 50 nM | < 50 nM | < 50 nM |  | < 50 nM |  | < 50 nM
CC(Nc1nc(NC(C)C(F)(F)F)nc(-c2nc(C(F)(F)F)cs2)n1)C(F)(F)F (centres unmarked) [Compound 404] | < 50 nM | < 50 nM | < 50 nM |  | < 50 nM |  | < 50 nM
FC(F)(F)c1cc(Nc2nc(NCC3CC3)nc(-n3ccc(C(F)(F)F)n3)n2)ccn1 [Compound 407] | < 50 nM | < 50 nM | 100 to 1000 nM |  | < 50 nM |  | 100 to 1000 nM
FC(F)c1ccnc(-c2nc(NC3CC(F)(F)C3)nc(NC3CC(F)(F)C3)n2)n1 [Compound 411] | < 50 nM | 50 to 100 nM | 100 to 1000 nM |  | 50 to 100 nM |  | 100 to 1000 nM
